# Molecular target: KRasG12C (M1-K169, biotinylated on the N-terminus) (Homo sapiens (Human), UniProt P01116, G12C)
# Assay: Covalent competition assay: scintillation proximity assay (SPA) quantifying covalent modification of KRASG12C
# Format: binding
# Conditions: competition with radiolabeled covalent probe (Compound B/Compound A), 2 hours incubation, 10 nM KRasG12C
# In short: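 Test compounds compete with a radiolabeled covalent probe for modification of N-terminally biotinylated KRasG12C(M1-K169):GDP, final 10 nM protein, 25 nM radio-ligand, 475 nM unlabelled ligand, 2 h with agitation in 20 mM Tris-HCl pH 7.5, 150 mM NaCl, 0.1 mM MgCl2, 0.01% Tween-20.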
row,SMILES,IC50
1,"C=CC(=O)N1CC2(CC(n3nc(N4[C@H]5CC[C@@H]4CN(C)CC5)c(-c4c(Cl)c(C)cc5[nH]ncc45)c3C)C2)C1 [Example 64, 1-(6-(4-(5-chloro-6-methyl-1H-indazol-4-yl)-5-methyl-3-((1R,6S)-3-methyl-3,9-diazabicyclo[4.2.1]nonan-9-yl)-1H-pyrazol-1-yl)-2-azaspiro[3.3]heptan-2-yl)prop-2-en-1-one]",519 nM
2,"C=CC(=O)N1CC2(CC(n3nc(N4CCN(C(C)=O)CC4)c(-c4c(Cl)ccc5[nH]ncc45)c3C)C2)C1C (single isomer, unassigned) [Example 195a, 1-(6-(3-(4-Acetylpiperazin-1-yl)-4-(5-chloro-1H-indazol-4-yl)-5-methyl-1H-pyrazol-1-yl)-1-methyl-2-azaspiro[3.3]heptan-2-yl)prop-2-en-1-one]",10400 nM
3,"C=CC(=O)N1CC2(CC(n3nc(N4CCN(CC(C)(C)O)CC45CCCC5)c(-c4c(Cl)c(C)cc5[nH]ncc45)c3C)C2)C1 (single isomer, unassigned) [Example 165b, 1-(6-(4-(5-chloro-6-methyl-1H-indazol-4-yl)-3-(9-(2-hydroxy-2-methylpropyl)-6,9-diazaspiro[4.5]decan-6-yl)-5-methyl-1H-pyrazol-1-yl)-2-azaspiro[3.3]heptan-2-yl)prop-2-en-1-one]",26 nM
4,"C=CC(=O)N1CC2(CC(n3nc(N4CCN(C(C)=O)CC45CCC5)c(-c4c(Cl)c(C)cc5[nH]ncc45)c3C)C2)C1 (single isomer, unassigned) [Example 21a, 1-(6-(3-(8-acetyl-5,8-diazaspiro[3.5]nonan-5-yl)-4-(5-chloro-6-methyl-1H-indazol-4-yl)-5-methyl-1H-pyrazol-1-yl)-2-azaspiro[3.3]heptan-2-yl)prop-2-en-1-one]",11100 nM
5,"C=CC(=O)N1CC2(CC(n3nc(N4CCN(C5COC5)CC45CCCC5)c(-c4c(Cl)c(C)cc5[nH]ncc45)c3C)C2)C1 (single isomer, unassigned) [Example 144a, 1-(6-(4-(5-chloro-6-methyl-1H-indazol-4-yl)-5-methyl-3-(9-(oxetan-3-yl)-6,9-diazaspiro[4.5]decan-6-yl)-1H-pyrazol-1-yl)-2-azaspiro[3.3]heptan-2-yl)prop-2-en-1-one]",> 5000 nM
6,"C=CC(=O)N1CC2(CC(n3nc(N4CC[C@@H](CN5CC6(C5)CN(C)C(=O)O6)CC4(C)C)c(-c4c(Cl)c(Cl)cc5[nH]ncc45)c3C)C2)C1 (single isomer, unassigned) [Example 284a]",1600 nM
7,"C=CC(=O)N1C[C@]2(C[C@H](n3nc(N4CCN(C[C@@H]5COCCO5)C[C@]4(C)CC)c(-c4c(Cl)c(C)cc5[nH]ncc45)c3C)C2)[C@H]1C (single isomer, unassigned) [Example 200a]",> 5000 nM
8,"C=CC(=O)N1CC2(CC(n3nc(N4CCN(C(=O)OC)CC4(C)C)c(-c4c(Cl)c(C)cc5[nH]ncc45)c3C)C2)C1 (single isomer, unassigned) [Example 125a, methyl 4-(1-(2-acryloyl-2-azaspiro[3.3]heptan-6-yl)-4-(5-chloro-6-methyl-1H-indazol-4-yl)-5-methyl-1H-pyrazol-3-yl)-3,3-dimethylpiperazine-1-carboxylate]",2200 nM
9,"C=CC(=O)N1CC2(CC(n3nc(N4CC[C@@H](CN5CCO[C@@H](C(N)=O)C5)CC4(C)C)c(-c4c(Cl)c(Cl)cc5[nH]ncc45)c3C)C2)C1 (single isomer, unassigned) [Example 271a]",> 5000 nM
10,"C=CC(=O)N1CC2(CC(n3nc(N4CCC5(CN(C)CCO5)CC4(C)C)c(-c4c(Cl)c(C)cc5[nH]ncc45)c3C)C2)C1 (single isomer, unassigned) [Example 208b, 1-(6-(4-(5-chloro-6-methyl-1H-indazol-4-yl)-5-methyl-3-(4,8,8-trimethyl-1-oxa-4,9-diazaspiro[5.5]undecan-9-yl)-1H-pyrazol-1-yl)-2-azaspiro[3.3]heptan-2-yl)prop-2-en-1-one]",3800 nM
11,"C=CC(=O)N1CC2(CC(n3nc(N4CCCc5c(cnn5C)C4)c(-c4c(Cl)c(C)cc5[nH]ncc45)c3C)C2)C1 (single isomer, unassigned) [Example 43a, 1-(6-(4-(5-chloro-6-methyl-1H-indazol-4-yl)-5-methyl-3-(1-methyl-4,6,7,8-tetrahydropyrazolo[4,3-c]azepin-5(1H)-yl)-1H-pyrazol-1-yl)-2-azaspiro[3.3]heptan-2-yl)prop-2-en-1-one]",> 50000 nM
12,"C=CC(=O)N1CC2(CC(n3nc(N4CC[C@@H](CN5CC6C5CCN6C5COC5)CC4(C)C)c(-c4c(Cl)c(Cl)cc5[nH]ncc45)c3C)C2)C1 (single isomer, unassigned) [Example 278a, 1-(6-(4-(5,6-dichloro-1H-indazol-4-yl)-3-((R)-2,2-dimethyl-4-(((1S*,5S*)-2-(oxetan-3-yl)-2,6-diazabicyclo[3.2.0]heptan-6-yl)methyl)piperidin-1-yl)-5-methyl-1H-pyrazol-1-yl)-2-azaspiro[3.3]heptan-2-yl)prop-2-en-1-one]",> 5000 nM
13,"C=CC(=O)N1CC2(CC(n3nc(N4CC[C@@H](CN5CC6COCC(C5)O6)CC4(C)C)c(-c4c(Cl)c(Cl)cc5[nH]ncc45)c3C)C2)C1 (single isomer, unassigned) [Example 308a]",747 nM
14,"C=CC(=O)N1CC2(CC(n3nc(N4C[C@H]5C[C@@H]4CN5C(C)=O)c(-c4c(Cl)c(C)cc5[nH]ncc45)c3C)C2)C1 [Example 5, 1-(6-(3-((1R,4R)-5-acetyl-2,5-diazabicyclo[2.2.1]heptan-2-yl)-4-(5-chloro-6-methyl-1H-indazol-4-yl)-5-methyl-1H-pyrazol-1-yl)-2-azaspiro[3.3]heptan-2-yl)prop-2-en-1-one]",2200 nM
15,"C=CC(=O)N1CC2(CC(n3nc(N4CCN(C[C@@H]5COCCO5)C[C@]4(C)COC)c(-c4c(Cl)c(C)cc5[nH]ncc45)c3C)C2)C1 (single isomer, unassigned) [Example 181a]",929 nM
16,"C=CC(=O)N1CC2(CC(n3nc(N4CC[C@H](N(C)C(C)=O)CC4(C)C)c(-c4c(Cl)c(C)cc5[nH]ncc45)c3C)C2)C1 (single isomer, unassigned) [Example 70a]",287 nM
17,"C=CC(=O)N1CC2(CC(n3nc(N4CCN(C(COC)COC)C[C@]4(C)CC)c(-c4c(Cl)c(C)cc5[nH]ncc45)c3C)C2)C1 (single isomer, unassigned) [Example 187a]",4200 nM
18,"C=CC(=O)N1CC2(CC(n3nc(N4CCn5nccc5C4C)c(-c4c(Cl)c(C)cc5[nH]ncc45)c3C)C2)C1 (single isomer, unassigned) [Example 42a, 1-(6-(4-(5-chloro-6-methyl-1H-indazol-4-yl)-5-methyl-3-(4-methyl-6,7-dihydropyrazolo[1,5-a]pyrazin-5(4H)-yl)-1H-pyrazol-1-yl)-2-azaspiro[3.3]heptan-2-yl)prop-2-en-1-one]",> 50000 nM
19,"C=CC(=O)N1CC2(CC(n3nc(N4CCN(C(C)(C)CO)CC45CCC5)c(-c4c(Cl)c(C)cc5[nH]ncc45)c3C)C2)C1 (single isomer, unassigned) [Example 190b, 1-(6-(4-(5-Chloro-6-methyl-1H-indazol-4-yl)-3-(8-(1-hydroxy-2-methylpropan-2-yl)-5,8-diazaspiro[3.5]nonan-5-yl)-5-methyl-1H-pyrazol-1-yl)-2-azaspiro[3.3]heptan-2-yl)prop-2-en-1-one]",111 nM

# The next compounds have a lower IC50 than those just listed; values first:
row,IC50,SMILES
1,8 nM,"C=CC(=O)N1CC2(CC(n3nc(N4CCN(C[C@@H]5COCCO5)C[C@]4(C)COC)c(-c4c(Cl)c(Cl)cc5[nH]ncc45)c3C)C2)C1 (single isomer, unassigned) [Example 182b]"
2,20 nM,"C=CC(=O)N1CC2(CC(n3nc(N4CCC5(CN(C)CCO5)CC4(C)C)c(-c4c(Cl)c(C)cc5[nH]ncc45)c3C)C2)C1 (single isomer, unassigned) [Example 207b, 1-(6-(4-(5-chloro-6-methyl-1H-indazol-4-yl)-5-methyl-3-(4,8,8-trimethyl-1-oxa-4,9-diazaspiro[5.5]undecan-9-yl)-1H-pyrazol-1-yl)-2-azaspiro[3.3]heptan-2-yl)prop-2-en-1-one]"
3,9 nM,"C=CC(=O)N1CC2(CC(n3nc(N4CC[C@@H](CN5CC6(CCOC6)C5)CC4(C)C)c(-c4c(Cl)c(Cl)cc5[nH]ncc45)c3C)C2)C1 (single isomer, unassigned) [Example 316b]"
4,8 nM,"C=CC(=O)N1CC2(CC(n3nc(N4CC[C@@H](CN(CCO)CCOC)CC4(C)C)c(-c4c(Cl)c(Cl)cc5[nH]ncc45)c3C)C2)C1 (single isomer, unassigned) [Example 253b]"
5,12 nM,"[2H]C([2H])([2H])c1c(-c2c(Cl)c(Cl)cc3[nH]ncc23)c(N2CC[C@@H](CN3CCOCC3)CC2(C)C)nn1C1CC2(C1)CN(C(=O)C=C)C2 (single isomer, unassigned) [Example 224b]"
6,13 nM,"C=CC(=O)N1CC2(CC(n3nc(N4CC[C@@H](CN5C[C@H](O)C[C@@H](F)C5)CC4(C)C)c(-c4c(Cl)c(Cl)cc5[nH]ncc45)c3C)C2)C1 (single isomer, unassigned) [Example 300b, 1-(6-(4-(5,6-dichloro-1H-indazol-4-yl)-3-((R)-4-(((3R*,5R*)-3-fluoro-5-hydroxypiperidin-1-yl)methyl)-2,2-dimethylpiperidin-1-yl)-5-methyl-1H-pyrazol-1-yl)-2-azaspiro[3.3]heptan-2-yl)prop-2-en-1-one]"
7,9 nM,"C=CC(=O)N1CC2(CC(n3nc(N4CC[C@@H](CN5CC6(C5)CS(=O)(=O)C6)CC4(C)C)c(-c4c(Cl)c(Cl)cc5[nH]ncc45)c3C)C2)C1 (single isomer, unassigned) [Example 248b]"
8,10 nM,"C=CC(=O)N1CC2(CC(n3nc(N4CCC(N5CCOCC5)CC45CCC5)c(-c4c(Cl)c(C)cc5[nH]ncc45)c3C)C2)C1 (single isomer, unassigned) [Example 63a, 1-(6-(4-(5-chloro-6-methyl-1H-indazol-4-yl)-5-methyl-3-(8-morpholino-5-azaspiro[3.5]nonan-5-yl)-1H-pyrazol-1-yl)-2-azaspiro[3.3]heptan-2-yl)prop-2-en-1-one]"
